{"source": "patent US20220267310A1", "about": "“QUINAZOLINE AND CINNOLINE DERIVATIVES AS DNA-PK INHIBITOR” (MEDSHINE DISCOVERY INC., priority 2019, published 2022)", "key": {"[1]": {"target": "T1, PI3K (p120γ) (Homo sapiens, UniProt P48736)", "T1 construct": "Eurofins Pharma Discovery Service (contract assay)", "T1 sequence (P48736 whole entry, the tested form may be a part)": "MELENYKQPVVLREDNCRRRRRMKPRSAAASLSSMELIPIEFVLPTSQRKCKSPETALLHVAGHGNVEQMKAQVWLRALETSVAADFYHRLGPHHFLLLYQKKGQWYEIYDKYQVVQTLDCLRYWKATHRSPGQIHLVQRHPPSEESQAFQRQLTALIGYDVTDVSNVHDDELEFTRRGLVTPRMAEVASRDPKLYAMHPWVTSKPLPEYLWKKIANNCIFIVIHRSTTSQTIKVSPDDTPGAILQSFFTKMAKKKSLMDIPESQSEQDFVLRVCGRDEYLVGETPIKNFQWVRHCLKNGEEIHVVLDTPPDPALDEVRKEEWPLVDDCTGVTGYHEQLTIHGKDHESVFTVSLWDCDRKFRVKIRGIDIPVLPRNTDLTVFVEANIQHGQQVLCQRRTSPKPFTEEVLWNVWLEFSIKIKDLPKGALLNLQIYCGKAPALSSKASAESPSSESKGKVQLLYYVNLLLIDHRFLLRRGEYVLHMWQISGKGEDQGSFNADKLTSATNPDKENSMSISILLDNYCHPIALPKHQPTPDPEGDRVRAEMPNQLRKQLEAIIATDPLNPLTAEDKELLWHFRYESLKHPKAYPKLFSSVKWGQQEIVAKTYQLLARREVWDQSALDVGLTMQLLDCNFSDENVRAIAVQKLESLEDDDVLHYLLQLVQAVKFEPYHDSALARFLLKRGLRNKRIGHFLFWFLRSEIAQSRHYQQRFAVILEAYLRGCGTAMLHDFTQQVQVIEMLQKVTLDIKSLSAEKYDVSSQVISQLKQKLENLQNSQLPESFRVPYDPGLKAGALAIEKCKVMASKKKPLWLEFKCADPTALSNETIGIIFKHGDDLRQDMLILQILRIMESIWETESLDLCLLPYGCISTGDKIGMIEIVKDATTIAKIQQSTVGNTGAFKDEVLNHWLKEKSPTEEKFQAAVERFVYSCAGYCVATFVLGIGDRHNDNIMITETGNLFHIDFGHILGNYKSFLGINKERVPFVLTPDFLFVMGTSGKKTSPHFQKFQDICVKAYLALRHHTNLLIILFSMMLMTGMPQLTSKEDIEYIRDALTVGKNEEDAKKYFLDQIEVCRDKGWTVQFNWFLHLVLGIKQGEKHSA", "experiment": "PI3K (p120γ) kinase inhibitory activity (HTRF)", "type": "biochemical", "experimental": "(§1) This experiment was tested at Eurofins Pharma Discovery Service, Reaction Biology Corp. (RBC)\n(§2) […] DNA-PK: Mg/ATP; GST-cMyc-p53; EDTA; Ser15 antibody; ATP: 10 μM; biotinylated phosphatidylinositol-3,4,5-triphosphate; GST label GRP1 PH domain; streptavidin and phycocyanin; europium-labelled monoclonal antibody against GST.\n(§3) PI3K (p120γ) was incubated in a determination buffer containing phosphatidylinositol 4,5-diphosphate and Mg/ATP (density as required). The reaction was initiated by adding a mixture of Mg/ATP. After incubating at room temperature for 30 min, a termination solution containing EDTA and biotinylated phosphatidylinositol-3,4,5-triphosphate was added to terminate the reaction. Finally, a detection buffer (containing labeled anti-GST monoclonal antibody, PH domain of GRP1 with GST label and streptavidin and phycyanin and […]) was added. Then, the board was read in time-resolved fluorescence mode, and an HTRF signal was measured according to the formula HTRF=10000×(Em665 nm/Em620 nm)."}, "[2]": {"target": "T2, PI3K (p110β/p85α) (Homo sapiens, UniProt P42338)", "T2 construct": "Eurofins Pharma Discovery Service (contract assay)", "T2 sequence (P42338 whole entry, species assumed)": "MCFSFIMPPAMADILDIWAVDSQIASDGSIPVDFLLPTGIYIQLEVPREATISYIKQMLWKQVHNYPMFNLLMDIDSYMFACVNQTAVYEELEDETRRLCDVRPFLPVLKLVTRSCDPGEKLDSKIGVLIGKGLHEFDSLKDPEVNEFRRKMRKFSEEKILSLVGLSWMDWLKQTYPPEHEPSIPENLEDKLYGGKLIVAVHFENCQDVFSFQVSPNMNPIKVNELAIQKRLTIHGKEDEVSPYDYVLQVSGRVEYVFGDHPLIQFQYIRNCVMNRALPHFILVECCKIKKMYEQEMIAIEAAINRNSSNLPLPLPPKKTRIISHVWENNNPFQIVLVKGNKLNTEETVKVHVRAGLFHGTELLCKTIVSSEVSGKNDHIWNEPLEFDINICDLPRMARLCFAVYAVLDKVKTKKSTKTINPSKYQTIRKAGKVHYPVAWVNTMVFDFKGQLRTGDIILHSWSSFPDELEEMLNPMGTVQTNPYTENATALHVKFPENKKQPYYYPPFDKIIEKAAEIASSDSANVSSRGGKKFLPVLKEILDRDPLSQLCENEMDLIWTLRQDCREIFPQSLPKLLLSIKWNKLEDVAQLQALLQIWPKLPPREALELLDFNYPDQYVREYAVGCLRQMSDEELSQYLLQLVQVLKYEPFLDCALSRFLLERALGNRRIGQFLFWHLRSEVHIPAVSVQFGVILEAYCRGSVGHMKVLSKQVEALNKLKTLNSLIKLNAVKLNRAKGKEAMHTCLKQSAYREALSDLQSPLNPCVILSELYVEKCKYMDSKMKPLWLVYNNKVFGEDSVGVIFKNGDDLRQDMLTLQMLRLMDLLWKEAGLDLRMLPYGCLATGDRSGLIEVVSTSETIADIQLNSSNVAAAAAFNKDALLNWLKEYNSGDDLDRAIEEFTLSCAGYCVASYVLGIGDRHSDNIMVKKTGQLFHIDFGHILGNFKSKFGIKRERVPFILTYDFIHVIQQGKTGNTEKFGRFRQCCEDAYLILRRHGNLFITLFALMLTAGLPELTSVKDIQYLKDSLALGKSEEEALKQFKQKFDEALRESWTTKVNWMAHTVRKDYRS", "T2 sequence (P27986 whole entry partner, species assumed)": "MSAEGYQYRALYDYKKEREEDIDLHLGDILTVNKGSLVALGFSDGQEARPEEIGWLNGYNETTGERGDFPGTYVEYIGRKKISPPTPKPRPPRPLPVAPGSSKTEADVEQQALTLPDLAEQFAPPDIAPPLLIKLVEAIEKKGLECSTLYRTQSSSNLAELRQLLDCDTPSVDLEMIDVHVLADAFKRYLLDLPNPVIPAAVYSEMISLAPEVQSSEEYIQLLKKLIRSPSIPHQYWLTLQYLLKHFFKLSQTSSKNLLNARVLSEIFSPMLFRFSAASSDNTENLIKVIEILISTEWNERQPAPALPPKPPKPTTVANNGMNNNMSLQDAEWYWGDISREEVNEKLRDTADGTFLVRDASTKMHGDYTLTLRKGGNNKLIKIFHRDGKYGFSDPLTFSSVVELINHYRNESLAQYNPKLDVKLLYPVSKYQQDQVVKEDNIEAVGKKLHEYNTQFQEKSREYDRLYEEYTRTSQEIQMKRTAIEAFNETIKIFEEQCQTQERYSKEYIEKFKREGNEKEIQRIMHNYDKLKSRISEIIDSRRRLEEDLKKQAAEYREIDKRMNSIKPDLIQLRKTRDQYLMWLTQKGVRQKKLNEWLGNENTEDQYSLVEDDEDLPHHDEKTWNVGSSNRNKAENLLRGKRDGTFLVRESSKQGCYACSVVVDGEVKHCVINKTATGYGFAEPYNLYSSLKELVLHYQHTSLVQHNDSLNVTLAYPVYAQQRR", "experiment": "PI3K (p110β/p85α) kinase inhibitory activity (HTRF)", "type": "biochemical", "experimental": "as §1, §2\nas §3, with “(p110β/p85α)” for “(p120γ)”, “phosphatidylinositol-3,4, 5-triphosphate” for “phosphatidylinositol-3,4,5-triphosphate”"}, "[3]": {"test_system": "human head and neck cancer FaDu cell subcutaneous xenograft tumor", "experiment": "FaDu subcutaneous xenograft, mono and combination with radiotherapy", "type": "in vivo", "conditions": "for Tumor volume (mm^3), 3 days after administration: day 3; for Tumor volume (mm^3), 7 days after administration: day 7; for Tumor volume (mm^3), 10 days after administration: day 10; for Tumor volume (mm^3), 14 days after administration: day 14; for Tumor volume (mm^3), 17 days after administration: day 17; for Tumor volume (mm^3), 23 days after administration: day 23; for RTV (21th day) / T/C (%) (21th day) / TGI (%) (21th day) / Tumor volume (mm^3) (0th day) / Tumor volume (mm^3) (21th day): 50 mg/kg, PO", "experimental": "Experiment purpose: The antitumor activity of the tested compound was evaluated in a nude mouse model of human head and neck cancer FaDu cell subcutaneous xenograft tumor\nExperimental animals: Female BALB/c nude mice, 6-8 weeks old, weighing 17-23 grams; supplier: B&K Universal Group Limited\nHuman head and neck cancer FaDu cell (ATCC, Manassas. Virginiaite, item number: HTB-43) was cultured in vitro in a culture condition of EMEM medium with 10% fetal bovine serum, 100 U/mL penicillin and 100 μg/mL streptomycin, incubated at 37° C. and 5% CO2. Conventional digestive treatment passage was carried out using pancreatic enzyme—EDTA twice a week.\nEach mouse was subcutaneously inoculated with 0.1 mL ([…]) FaDu cells at the right dorsal position, and when the average tumor volume reaches about 106 mm^3, randomization was used for initiating drug administration.\nThe tested compound was prepared as a 5 mg/mL clarified solution with 10% DMSO+50% polyethylene glycol 400+40% water as the solvent. Preparation was conducted every three days.\nThe experimental indicators refers to study whether tumor growth was inhibited, delayed, or cured. Tumor diameter was measured twice a week with a vernier caliper. The calculation formula of the tumor volume was V=0.5a×b^2, and a and b represent the long diameter and short diameter of the tumor, respectively.\nThe antitumor efficacy of the compound was evaluated by TGI (%) or relative tumor proliferation rate T/C (%). TGI (%) reflects the tumor growth inhibition rate. The calculation of TGI (%): TGI (%)=[1−(average tumor volume at the end of administration of a certain treatment group−average tumor volume at the beginning of administration of the treatment group)/(average tumor volume at the end of treatment in solvent control group−average tumor volume at the beginning of treatment in solvent control group)]×control group.\nRelative tumor proliferation rate T/C (%): the calculation formula was as follows: T/C %=[…] TRTV/CRTV group (TRTV: treatment group RTV: CRTV: negative control group RTV). According to results of tumor measurement. Relative Tumor Volume (RTV) was calculated by the formula RTV=Vt/V0, where V0 was the average tumor volume measured in group administration (i.e., d0), and Vt was the average tumor volume measured in a certain single measurement. TRTV and CRTV collect data on the same day.\nStatistic analysis includes an average value and a standard error (SEM) of tumor volume at each time point for each group. […] If there was no significant difference in F value, Dunnet (2-sided) method was applied to analysis. All data were analyzed using SPSS 17.0. P<0.05 was considered as having a significant difference."}, "[4]": {"target": "T3, PI3K (p110α/p85α) (Homo sapiens, UniProt P42336)", "T3 construct": "Eurofins Pharma Discovery Service (contract assay)", "T3 sequence (P42336 whole entry, species assumed)": "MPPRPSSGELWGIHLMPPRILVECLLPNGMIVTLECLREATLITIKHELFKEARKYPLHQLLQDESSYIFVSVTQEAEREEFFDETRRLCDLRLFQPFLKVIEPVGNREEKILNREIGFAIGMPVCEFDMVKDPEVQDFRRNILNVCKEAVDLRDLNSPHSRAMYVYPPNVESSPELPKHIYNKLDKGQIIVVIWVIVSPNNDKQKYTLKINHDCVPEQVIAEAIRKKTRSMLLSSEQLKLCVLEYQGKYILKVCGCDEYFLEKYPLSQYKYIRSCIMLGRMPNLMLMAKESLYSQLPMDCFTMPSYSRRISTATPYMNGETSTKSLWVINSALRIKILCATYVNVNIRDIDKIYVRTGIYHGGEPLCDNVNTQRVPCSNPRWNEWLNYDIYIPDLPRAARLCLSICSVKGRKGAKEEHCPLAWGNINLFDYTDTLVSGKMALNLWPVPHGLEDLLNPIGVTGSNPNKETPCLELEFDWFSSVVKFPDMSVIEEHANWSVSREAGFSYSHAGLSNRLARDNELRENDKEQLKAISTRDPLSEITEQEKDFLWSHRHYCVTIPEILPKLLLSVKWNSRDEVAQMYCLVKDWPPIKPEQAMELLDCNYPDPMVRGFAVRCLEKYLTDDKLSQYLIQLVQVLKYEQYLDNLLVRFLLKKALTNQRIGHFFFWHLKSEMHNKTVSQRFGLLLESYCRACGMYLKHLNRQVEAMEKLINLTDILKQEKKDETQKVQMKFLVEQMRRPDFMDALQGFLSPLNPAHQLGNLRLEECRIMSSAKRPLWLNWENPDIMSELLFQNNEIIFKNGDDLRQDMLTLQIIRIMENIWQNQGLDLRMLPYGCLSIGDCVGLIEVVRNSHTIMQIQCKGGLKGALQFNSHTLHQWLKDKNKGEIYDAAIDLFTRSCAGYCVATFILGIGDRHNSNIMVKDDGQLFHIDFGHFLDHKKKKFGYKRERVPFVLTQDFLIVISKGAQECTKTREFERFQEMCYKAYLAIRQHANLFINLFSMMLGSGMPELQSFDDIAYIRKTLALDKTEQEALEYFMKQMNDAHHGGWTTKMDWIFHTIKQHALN", "T3 sequence (P27986 whole entry partner, species assumed)": "as the sequence (P27986 whole entry partner, species assumed) above", "experiment": "PI3K (p110α/p85α) kinase inhibitory activity (HTRF)", "type": "biochemical", "experimental": "as §1, §2\nas §3, with “(p110α/p85α)” for “(p120γ)”, “an ATP solution.” for “a mixture of Mg/ATP.”"}, "[5]": {"conditions": "50 mg/kg + 2 Gy, average ± SEM, n = 8"}, "[6]": {"conditions": "50 mg/kg alone, average ± SEM, n = 8"}, "[7]": {"conditions": "QD, alone, average ± SEM, n = 8"}}}
{"smiles": "COc1ccc([C@@H](O)c2cc(-c3nncc4cc(N5CCOCC5)ccc34)c(F)cc2Cl)nn1", "note": "[Embodiment M3814, reference compound]", "values": [{"measurement": "IC50", "setting": "[1]", "value": 1.22, "unit": "µM"}, {"measurement": "IC50", "setting": "[2]", "value": 0.033, "unit": "µM"}, {"measurement": "Tumor volume (mm^3), 3 days after administration", "setting": "[3]; [5]", "value": "168 ± 10", "unit": "mm^3"}, {"measurement": "Tumor volume (mm^3), 7 days after administration", "setting": "[3]; [5]", "value": "106 ± 19", "unit": "mm^3"}, {"measurement": "Tumor volume (mm^3), 10 days after administration", "setting": "[3]; [5]", "value": "68 ± 16", "unit": "mm^3"}, {"measurement": "Tumor volume (mm^3), 14 days after administration", "setting": "[3]; [5]", "value": "25 ± 9", "unit": "mm^3"}, {"measurement": "Tumor volume (mm^3), 17 days after administration", "setting": "[3]; [5]", "value": "12 ± 4", "unit": "mm^3"}, {"measurement": "Tumor volume (mm^3), 23 days after administration", "setting": "[3]; [5]", "value": "1 ± 1", "unit": "mm^3"}, {"measurement": "Tumor volume (mm^3), 28 days after administration", "setting": "[3]; 50 mg/kg + 2 Gy, day 28, average ± SEM, n = 8", "value": "1 ± 1", "unit": "mm^3"}, {"measurement": "Tumor volume (mm^3), 31 days after administration", "setting": "[3]; 50 mg/kg + 2 Gy, day 31, average ± SEM, n = 8", "value": "0 ± 0", "unit": "mm^3"}, {"measurement": "Tumor volume (mm^3), 35 days after administration", "setting": "[3]; 50 mg/kg + 2 Gy, day 35, average ± SEM, n = 8", "value": "0 ± 0", "unit": "mm^3"}, {"measurement": "Tumor volume (mm^3), 42 days after administration", "setting": "[3]; 50 mg/kg + 2 Gy, day 42, average ± SEM, n = 8", "value": "0 ± 0", "unit": "mm^3"}, {"measurement": "Tumor volume (mm^3), 49 days after administration", "setting": "[3]; 50 mg/kg + 2 Gy, day 49, average ± SEM, n = 8", "value": "0 ± 0", "unit": "mm^3"}, {"measurement": "Tumor volume (mm^3), 56 days after administration", "setting": "[3]; 50 mg/kg + 2 Gy, day 56, average ± SEM, n = 8", "value": "0 ± 0", "unit": "mm^3"}, {"measurement": "Tumor volume (mm^3), 63 days after administration", "setting": "[3]; 50 mg/kg + 2 Gy, day 63, average ± SEM, n = 8", "value": "0 ± 0", "unit": "mm^3"}, {"measurement": "Tumor volume (mm^3), 70 days after administration", "setting": "[3]; 50 mg/kg + 2 Gy, day 70, average ± SEM, n = 8", "value": "0 ± 0", "unit": "mm^3"}, {"measurement": "animal death or euthanasia during the study", "setting": "[3]; 50 mg/kg alone, one animal of the group", "value": "found dead on day 23 after group administration"}, {"measurement": "Tumor volume (mm^3), 3 days after administration", "setting": "[3]; [6]", "value": "167 ± 20", "unit": "mm^3"}, {"measurement": "Tumor volume (mm^3), 7 days after administration", "setting": "[3]; [6]", "value": "322 ± 35", "unit": "mm^3"}, {"measurement": "Tumor volume (mm^3), 10 days after administration", "setting": "[3]; [6]", "value": "502 ± 48", "unit": "mm^3"}, {"measurement": "Tumor volume (mm^3), 14 days after administration", "setting": "[3]; [6]", "value": "752 ± 64", "unit": "mm^3"}, {"measurement": "Tumor volume (mm^3), 17 days after administration", "setting": "[3]; [6]", "value": "997 ± 109", "unit": "mm^3"}, {"measurement": "Tumor volume (mm^3), 23 days after administration", "setting": "[3]; [6]", "value": "1831 ± 254", "unit": "mm^3"}, {"measurement": "RTV (21th day)", "setting": "[3]; QD + radiotherapy 2 Gy", "value": "0.03 ± 0.02"}, {"measurement": "T/C (%) (21th day)", "setting": "[3]; QD + radiotherapy 2 Gy", "value": 0.24, "unit": "%"}, {"measurement": "TGI (%) (21th day)", "setting": "[3]; QD + radiotherapy 2 Gy", "value": 108.46, "unit": "%"}, {"measurement": "Tumor volume (mm^3) (0th day)", "setting": "[3]; QD + radiotherapy 2 Gy, 5-day radiotherapy, 2-day withdrawal, average ± SEM, n = 8", "value": "106 ± 5", "unit": "mm^3"}, {"measurement": "Tumor volume (mm^3) (21th day)", "setting": "[3]; QD + radiotherapy 2 Gy, average ± SEM, n = 8", "value": "3 ± 2", "unit": "mm^3"}, {"measurement": "RTV (21th day)", "setting": "[3]; QD, alone", "value": "12.35 ± 1.10"}, {"measurement": "T/C (%) (21th day)", "setting": "[3]; QD, alone", "value": 99.60, "unit": "%"}, {"measurement": "TGI (%) (21th day)", "setting": "[3]; QD, alone", "value": "−0.43", "unit": "%"}, {"measurement": "Tumor volume (mm^3) (0th day)", "setting": "[3]; [7]", "value": "106 ± 5", "unit": "mm^3"}, {"measurement": "Tumor volume (mm^3) (21th day)", "setting": "[3]; [7]", "value": "1320 ± 174", "unit": "mm^3"}, {"measurement": "IC50", "setting": "[4]", "value": 0.042, "unit": "µM"}]}
